From patent US8232275B2, “2,2-bis-(hydroxymethyl)cyclopropylidenemethyl-purines and -pyrimidines as antiviral agents” (Wayne State University, priority 2002, dated 2012)
Marks after values point to notes of the source that are not given here.

What was measured:
[1] = tested on: KB cells; assay: Cytotoxicity in KB cells, growth during two population doublings (crystal violet); assay type: cell-based
Procedure: (§1) Cytotoxicity assays. Two different assays were used to explore cytotoxicity of selected compounds as we have detailed previously. (i) Cytotoxicity produced in stationary HFF cells was determined by microscopic inspection of cells used in plaque assays which were not affected by the virus. Turk, S. R., et al., Antimicrob. Agents Chemother. 31:544-550 (1987). (ii) The effect of compounds during two population doublings of KB cells was determined by crystal violet staining and spectrophotometric quantitation of dye eluted from stained cells. Prichard, M. N., et al., Antimicrob. Agents Chemother. 35:1060-1065 (1991). Data Analysis. Dose-response relationships were constructed by linearly regressing the percent inhibition of parameters derived in the preceding sections against log drug concentrations. Fifty-percent inhibitory (IC50) concentrations were calculated from the regression lines. Samples containing positive controls (acyclovir for HSV-1, ganciclovir for HCMV, and 2-acetylpyridine thiosemicarbazone for cytotoxicity) were used in all assays. Results from sets of assays were rejected if inhibition by the positive control deviated from its mean response by >±1.5 standard deviations.

[2] = tested on: HSV-1; assay: HSV-1 ELISA in BSC-1 cells; assay type: cell-based, herpes simplex virus type 1 (HSV-1); conditions: Human alphaherpesvirus 1
Procedure: (§2) Cells and viruses. The routine growth and passage of KB cells was performed in monolayer cultures using minimal essential medium (MEM) with either Hanks salts [MEM(H)] or Earle salts [MEM(E)] supplemented with 10% calf serum. The sodium bicarbonate concentration was varied to meet the buffering capacity required. Cultures of diploid human foreskin fibroblasts (HFF) or MRC-5 cells were grown in medium consisting of MEM(E) with 10% fetal bovine serum. Cells were passaged at 1:2 to 1:10 dilutions according to conventional procedures by using 0.05% trypsin plus 0.02% EDTA in a HEPES buffered salt solution (HBS) (Shipman, C., Jr., Proc. Soc. Exp. Biol. 130:305-310 (1969)) as described previously. Turk, S. R., et al., Antimicrob. Agents Chemother. 31:544-550 (1987). HFF and MRC-5 cells were passaged only at 1:2 dilutions. CEM cells were maintained in suspension culture as detailed previously. Kucera, L. S., et al., AIDS Res. Human Retroviruses 9:307-314 (1993).
(§3) Virological procedures. Stock HCMV was prepared by infecting HFF cells at a multiplicity of infection (m.o.i.) of <0.01 plaque-forming units (p.f.u.) per cell. Cell growth medium was changed every four days until cytopathology was evident in all cells (approximately 21 days). Supernatant fluids were retained as the virus stock. High titer HSV-1 stocks were prepared by infecting KB cells at an m.o.i. of <0.1 as detailed previously. Turk, S. R., et al., Antimicrob. Agents Chemother. 31:544-550 (1987). Virus titers were determined using monolayer cultures of HFF cells for HCMV and monolayer cultures of BSC-1 cells for HSV-1 as described earlier. Prichard, M. N. et al., J. Virol. Methods 28:101-106 (1990). Briefly, HFF or BSC-1 cells were planted as described above in 96-well cluster dishes and incubated overnight at 37° C. in a humidified 3% CO2-97% air atmosphere. The next day cultures were inoculated with HCMV or HSV-1 and serially diluted 1:3 across the remaining eleven columns of the 96-well plate. Cultures were incubated at 37° C. for 2 hr to permit virus adsorption and then virus inoculum was replaced with 0.2 mL of fresh medium. Cultures were incubated for seven days for HCMV, two or three days for HSV-1, medium was removed, and the cell sheets were stained with 0.1% crystal violet in 20% methanol. Plaques were enumerated under 20-fold magnification in wells having the dilution which gave 5 to 20 plaques per well. Virus titers were calculated according to the following formula: Titer (p.f.u./mL)=number of plaques×5×3^n; where n represents the nth dilution of the virus used to infect the well in which plaques were enumerated.
Assays for Antiviral Activity. (b) HSV-1. An enzyme-linked immunosorbent assay (ELISA) was employed to detect HSV-1. 96-well cluster dishes were planted with BSC-1 cells at 10,000 cells per well, in a total volume of 200 μL per well of MEM(E) plus 10% calf serum. After overnight incubation at 37° C., drug and HSV-1 was added at the rate of 100 PFU/well. ELISA plates were blocked with 200 μL per well of 10% calf serum and 0.05% tween in HBS. After incubation for 30 minutes, the blocking agent was rinsed two times with HBS-T. A 1:400 dilution of AP conjugated rabbit anti-HSV-1 antibody in HBS-F was added. Plates were sealed with adhesive sheet, and incubated on rocker for one hour at 37° C. Plates were developed in the dark with […] per well of substrate solution containing p-nitrophenyl phosphate. Plates were read at 492 nm. Drug effects were calculated as a percentage of the reduction in virus in the presence of each drug concentration compared to the titer obtained in the absence of drug. Acyclovir was used as a positive control in all experiments.
(§4) Data Analysis. Dose-response relationships were constructed by linearly regressing the percent inhibition of parameters derived in the preceding sections against log drug concentrations. Fifty-percent inhibitory (IC50) concentrations were calculated from the regression lines. […]

[3] = tested on: HCMV; assay: HCMV plaque reduction assay in HFF cells; assay type: cell-based, human cytomegalovirus (HCMV); conditions: Human betaherpesvirus 5, HFF host cells
Procedure: as §2, §3
Assays for Antiviral Activity. (a) HCMV. The effect of compounds on the replication of HCMV has been measured using a plaque reduction assay. HFF cells in 24-well cluster dishes were infected with approximately 100 p.f.u. of HCMV per cm^2 cell sheet using the procedures detailed above. Following virus adsorption, compounds dissolved in growth medium were added to duplicate wells in three to six selected concentrations. Following incubation at 37° C. for 7 to 10 days, cell sheets were fixed, stained with crystal violet and microscopic plaques enumerated as described above. Drug effects were calculated as a percentage of reduction in number of plaques in the presence of each drug concentration compared to the number observed in the absence of drug. Ganciclovir (DHPG) was used as a positive control in all experiments.
as §4, with “lines. Samples containing positive controls (acyclovir for HSV-1, ganciclovir for HCMV, and 2-acetylpyridine thiosemicarbazone for cytotoxicity) were used in all assays.” for “lines.”

[4] = Cytotoxicity in stationary HFF cells, microscopic (visual) inspection; assay type: cell-based; conditions: human, stationary HFF cells (uninfected cells of the plaque assays), read-out: IC50 (μM) HFF (visual)
Procedure: as §1

| Compound | IC50 [2] [µM] | melting point [°C] | IC50 (μM) KB (growth) ([1]; cytotoxicity, KB cell growth) | IC50 [3] [µM] | IC50 (μM) KB (growth) ([1]; human) [µM] | CC50 [4] [µM] |
| --- | --- | --- | --- | --- | --- | --- |
| Nc1nc2c(ncn2COCCO)c(=O)[nH]1 [Acyclovir, reference compound] | 0.15 |  | >100 ^b μM |  |  |  |
| Nc1ncnc2c1ncn2/C=C1/CC1(CO)CO [Compound 1a, (Z)-9-{(2,2-Bis-(hydroxymethyl)cyclopropylidene)methyl}-adenine] | 50 |  |  | 3.6 | >100 | > 100 |
| Nc1nc2c(ncn2/C=C2/CC2(CO)CO)c(=O)[nH]1 [Compound 1c, (Z)-9-{[2,2-Bis-(hydroxymethyl)cyclopropylidene]methyl}-guanine] | > 100 |  |  | 0.46 | >100 | > 100 |
| Nc1ccn(/C=C2/CC2(CO)CO)c(=O)n1 [Compound 1e, (Z)-1-{[2,2-Bis-(hydroxymethyl)cyclopropylidene]methyl}-cytosine] | > 100 | 250 to 253 |  | 32 | >100 | > 100 |
| Cc1cn(/C=C2/CC2(CO)CO)c(=O)[nH]c1=O [Compound 1f, (Z)-1-{[2,2-Bis-(hydroxymethyl)cyclopropylidene]methyl}-thymine] | 10 |  |  | > 100 | >100 | > 100 |
| COc1nc(N)nc2c1ncn2/C=C1/CC1(CO)CO [Compound 1g, (Z)-2-amino-6-methoxy-9-{[2,2-bis-(hydroxymethyl)cyclopropylidene]-methyl}purine] | > 100 | 188 to 189 |  | 3.5 | >100 | > 100 |
| Nc1nc(NC2CC2)c2ncn(/C=C3/CC3(CO)CO)c2n1 [Compound 1h, (Z)-2-Amino-6-cyclopropylamino-9-{[2,2-bis-(hydroxymethyl)-cyclopropylidene]methyl}purine] |  | 195 to 196 |  |  |  |  |
| Nc1nc(N)c2ncn(/C=C3/CC3(CO)CO)c2n1 [Compound 1o, (Z)-2,6-Diamino-9-{[2,2-bis-(hydroxymethyl)cyclopropylidene]-methyl}-purine] | > 100 | 249 to 250 |  | 15 | >100 | > 100 |
| Nc1nc(O)c2ncn(COC(CO)CO)c2n1 [Ganciclovir, reference compound] |  |  |  | 4.1 |  | > 100 |

Now from value to molecule, other results behind:

| IC50 [2] [µM] | melting point [°C] | Compound | IC50 (μM) KB (growth) ([1]; cytotoxicity, KB cell growth) | IC50 [3] [µM] | IC50 (μM) KB (growth) ([1]; human) [µM] | CC50 [4] [µM] |
| --- | --- | --- | --- | --- | --- | --- |
| 39 |  | Nc1nc2c(ncn2/C=C2\CC2(CO)CO)c(=O)[nH]1 [Compound 2c, (E)-9-{[2,2-Bis-(hydroxymethyl)cyclopropylidene]methyl}-guanine] |  | > 100 | >100 | > 100 |
|  | 249 to 251 | Nc1ccn(/C=C2\CC2(CO)CO)c(=O)n1 [Compound 2e, (E)-1-{[2,2-bis-(hydroxymethyl)cyclopropylidene]methyl}cytosine] |  |  |  |  |
|  | 179 to 180 | COc1nc(N)nc2c1ncn2/C=C1\CC1(CO)CO [Compound 2g, (E)-2-amino-6-methoxy-9-{[2,2-bis-(hydroxymethyl)cyclopropylidene]-methyl}purine] |  |  |  |  |
|  | 164 to 165 | Nc1nc(NC2CC2)c2ncn(/C=C3\CC3(CO)CO)c2n1 [Compound 2h, (E)-2-Amino-6-cyclopropylamino-9-{[2,2-bis-(hydroxymethyl)-cyclopropylidene]methyl}purine] |  |  |  |  |
|  | 219 to 220 | Nc1nc(N)c2ncn(/C=C3\CC3(CO)CO)c2n1 [Compound 2o, (E)-2,6-Diamino-9-{[2,2-bis-(hydroxymethyl)cyclopropylidene]-methyl}purine] |  |  |  |  |
